Measured values taken from patent US9707267B2, “Beta-turn peptidomimetic cyclic compounds for treating dry eye” (Mimetogen Pharmaceuticals, Inc., priority 2008, dated 2017).

Assays:
[1] = tested on: naïve rats; assay: Tear mucin production in naïve rats following topical instillation, ELLA (Example 4); type: in vivo, rat
Procedure: Dose-ranging studies were conducted on the topical instillations of compound D3 in stimulating mucin production in naïve rats. Thirty male sprague dawley rats were divided into five groups of six rats per group and were treated bilaterally once every hour for six consecutive hours with either saline, 0.4% of compound D3, 1.0% of compound D3, 2.5% of compound D3 and 0.00053% of NGF. Once anesthetized, each animal received a 5 μL topical instillation of test article into the lower conjunctival sac of both eyes using a calibrated micropipette.
Tear fluid washings from both eyes were pooled and were collected prior to treatment and following six hourly instillations of saline, compound D3 and NGF. All tear fluid washings were evaluated for mucin concentration by an enzyme-linked lectin assay (ELLA).
The mean and standard deviation (SD) were used to characterize the data. The differences in mucin concentration was calculated from treated minus baseline from groups of rats. Continuous mucin changes between two groups from baseline were evaluated using the paired t test. The mucin changes between more than two treatment groups were analyzed using an analysis of variance. The median mucin changes between treatment groups were compared against a theoretical median of zero using the […]. A two-sided test with P<0.05 was considered to be statistically significant. Statistical analysis were performed using GraphPad Prism 4.0C (GraphPad Software Inc., La Jolla, Calif.).

[2] = tested on: Conjunctival goblet cells; assay: Conjunctival goblet cell proliferation, WST-8 assay (Example 1); type: cell-based, rat; settings: NGF 1 nM (FIG. 4), 24 hours
Procedure: Cells derived from the explants were grown in RPMI 1640 supplemented with 10% fetal bovine serum (FBS) and penicillin (100 U/mL)/streptomycin (100 μg/mL) at 37° C. in a humidified 5% CO2-atmosphere for seventy-two hours. Contaminating nongoblet cells were removed by scraping them from the plate. During this time, goblet cells migrated from the pieces and began to proliferate. After one week, the goblet cells were trypsinized and plated in twenty-four well culture plates with RPMI-1640 media supplemented with 10% FBS.
Conjunctival goblet cells were grown to subconfluence in 24-well culture plates and then serum deprived for twenty-four hours. […] CGC proliferation was determined with a colorimetric nonradioactive, WST-8 proliferation assay that measures the number of cells. This procedure employs the 2-(2-methoxy-4-nitrophenyl)-3-(4-nitrophenyl)-5-(2,4-disulfophenyl)-2H-tetrazolium, monosodium salt (WST-8), which is cleaved by viable, growing mitochondria to form a dark blue formazan product that is detected by a fluorescence ELISA reader (Bio-Tek, Winooski, Vt.) at 460 nm.
Data for CGC glycoconjugate secretion and proliferation were expressed as the increase (x-fold) above basal value, which was standardized to 1.0. For example, for the 0.3 μM (micromolar), 1 μM and 10 μM doses, the CGC glycoconjugate secretion and proliferation were expressed as test compound over untreated cells. […]

[3] = Scopolamine induced rat dry eye model, body weights (Example 5); type: in vivo; settings: ± SD
Procedure: After the surgery and again the next day, the animals were subcutaneously injected with Caprofen (0.5 mg/100 g) a non-steroidal anti-inflammatory drug and potent, long-acting analgesic in rodents. Animals were weighed prior to pump implantation on Day−1, and then once a week for four weeks. This dosing regimen was reported to induce dry eye in rats (Viau S et al., “Time course of ocular surface and lacrimal gland changes in a new scopolamine-induced dry eye model,” Graefes Arch Clin Exp Ophthalmol., 246:857-867 (2008), the entire content of which is incorporated herein by reference).
There were no mortalities. […] Conjunctival congestion and conjunctival bloody discharge usually resolved the next day, but conjunctival swelling continued throughout the study. Pre-treatment, mean body weight was approximately 400 g, and was not statistically different among groups (p=0.3927) (Table 10). Mean body weight in the untreated control groups (G1) increased to approximately 575 g throughout the study. In the five groups receiving scopolamine (G2-G6), mean body weight increased to approximately 425 to 450 g. There was a statistically significant effect of treatment to decrease body weight starting on Day 14, continuing through Day 28 (p<0.0001 to 0.0426) (FIG. 24).

[4] = 2.5%, 5 μL bilaterally once every hour for six hours

| Compound | mean changes in mucin concentration (in words) ([1]; 0.4%, 1.0%, 2.5%, six hourly instillations) | tear mucin concentration at baseline ([1]; 2.5% group, prior to treatment) [ng/µL] | change in mucin concentration from baseline [1, 4] [ng/µL] | tear mucin concentration after treatment [1, 4] [ng/µL] | CGC proliferation [2] [fold above basal] | Body Weights ([3]; 0.00053% group, Day −1, pre-treatment) [g] | Body Weights ([3]; scopolamine + 0.00053% topical 1× daily Days 5-21, Day 7) [g] | Body Weights ([3]; scopolamine + 0.00053% topical 1× daily Days 5-21, Day 14) [g] | Body Weights ([3]; scopolamine + 0.00053% topical 1× daily Days 5-21, Day 20) [g] | Body Weights ([3]; scopolamine + 0.00053% topical 1× daily Days 5-21, Day 29) [g] |
| --- | --- | --- | --- | --- | --- | --- | --- | --- | --- | --- |
| NCCCC[C@@H]1NC(=O)[C@H](CCC(=O)O)NC(=O)c2cc([N+](=O)[O-])ccc2OCCC(C(=O)NCC(=O)O)NC1=O (stereo partly shown) [Compound D3] | dose-dependent | 3.0 ± 1.9 | 4.0 ± 3.5 | 7.0 ± 4.5 | – | – | – | – | – | – |
| NGF: nerve growth factor (recombinant human), positive control | – | – | – | – | 1.6±0.3 | 417 ± 16 | 396 ± 20 | 399 ± 18 | 417 ± 16 | 438 ± 22 |
